Measured values: patent US20240239818A1, “COMPOUNDS AND COMPOSITIONS COMPRISING FLUOROPHORES FOR USE IN VISUALIZATION AND PURIFICATION OR MANIPULATION” (priority 2022, published 2024)
Where two headings read alike, the source gives them in different places.

Tests used:
[1] = Determination of lactone-zwitterion equilibrium constant (KL-Z); type: physicochemical; conditions: 1:1 (v/v) dioxane:water
Procedure: Determination of KL-Z. The lactone-zwitterion equilibrium constant (KL-Z) was calculated as described previously^13, 23, 32, 45 using equation 1: […]
where εdw is the extinction coefficient of the dyes in a 1:1 (v/v) dioxane:water solvent mixture containing 0.01% (v/v) triethylamine; this dioxane water mixture was chosen to give a large range of KL-Z values,^23 and the triethylamine additive ensures the rhodamines are in the net neutral form. The εmax is the maximal extinction coefficient, measured in 0.1% (v/v) trifluoroacetic acid in 2,2,2-trifluoroethanol (TFE).

[2] = type: physicochemical
Procedure: Determination of logD7.4. The log of distribution coefficients at pH 7.4 was determined in octanol-phosphate-buffered saline (PBS) using the miniaturized shake flask setup described previously.^36, 47 Briefly, 150 mL each of octanol and PBS pH 7.4 were stirred vigorously for 12-16 h. The layers were allowed to stand for at least 24 h for phase separation. The separated layers were collected and served as PBS saturated with octanol (PBS*) and octanol saturated with PBS (octanol*). Stock solutions (1 mM or 5 mM) of ligands were prepared in DMSO and diluted in PBS* to obtain 1 μM or 10 μM (3-5 mL) of the standard (std). This standard was used to prepare appropriate dilutions using octanol*, in triplicate, in 2-mL glass vials. The leftover standard was used to determine the standard concentration (Cstd). The vials were vortexed for 1 min and shaken horizontally at 700 rpm for 2 h. The vials were then shaken upright at 150 rpm for 2 h to allow the phases to separate. The octanol* layer was pipetted out, and the PBS* layer was used for further analyses. The concentrations of ligands in the standard and PBS* (CPBS*) were determined via fluorescence measurements of 200 μL of PBS* or std in 96-well plates on the Cytation 5 Multimode Plate Reader (BioTek). For Si-rhodamine containing ligands, 2-20 μL of trifluoroacetic acid was added to each well of the 96-well plate prior to the fluorescence measurements. Reported values are averages of at least two measurements. The logD7.4 was obtained as described previously using equation 2:
[formula] • where Cstd is the standard concentration in PBS, CPBS* is the concentration in PBS after partitioning, r is the dilution factor of the standard solution, VPBS* is the volume of PBS used in the partitioning, and Voctanol* is the volume of octanol used in the partitioning.

[3] = biological target: T1, msGFP-HaloTag® fusion localized to the mitochondrial outer membrane (Rhodococcus rhodochrous, UniProt P0A3G2, A155T/A167V/A172T/A224E/C128F/C176G/D78G/E160K/E257K/H272N/K175M/K195N/L47V/L88M/N227D/S58T/T264A/Y273L/Y87F); test: HEK293T labeling and fluorescence microscopy; type: cell-based; conditions: live HEK293T cells, nanomolar concentration (100 nM, 1 h)
T1 construct: expressed in transfected cells; host or cells: HEK293T, calcium phosphate transfection
T1 sequence (P0A3G2 other isoform, or with tags, fused parts or gaps with the stated changes): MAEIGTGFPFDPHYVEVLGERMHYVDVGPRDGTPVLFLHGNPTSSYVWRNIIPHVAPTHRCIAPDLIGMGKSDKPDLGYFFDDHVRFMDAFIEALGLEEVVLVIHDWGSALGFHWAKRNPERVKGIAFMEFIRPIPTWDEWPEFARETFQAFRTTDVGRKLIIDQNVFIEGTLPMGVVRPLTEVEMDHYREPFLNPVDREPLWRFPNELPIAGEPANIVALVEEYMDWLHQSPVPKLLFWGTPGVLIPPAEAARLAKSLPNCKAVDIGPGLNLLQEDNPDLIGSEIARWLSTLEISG
Excerpt: Plasmid construction. HaloTag®, amplified from the pHTC HaloTag® CMV-neo Vector (Promega; G7711) and monomeric-superfolder green fluorescent protein (msGFP; lab stock), was fused to the mitochondrial targeting signal from OMP25,^28 interspacing flexible GS(GSS)4 linkers between each domain by PCR Splicing by Overlap Extension (SOE). This construct was subcloned into hSynapsin promoter bearing a copy of FUGW.^29 FUGW was a gift from David Baltimore (Addgene plasmid #14883; RRID: Addgene_14883).^48 This construct was designated as pF(UG) hSyn HaloTag®-TEV-4×GS-msGFP-mito.
HEK293T cell culture. HEK293T cells (ATCC) were passaged before 80% confluency by trypsinization (Corning; 25-053-CI) and trituration. The cell suspension was then plated on glass coverslips (Warner instruments; 64-0734, CS-18R17) coated with poly-D-lysine (Thermofisher; ICN10269491) and cultured in Dulbecco's Modified Eagle Medium (DMEM; ThermoFisher; 11965-118) supplemented with 10% v/v fetal bovine serum (FBS, Atlanta Biological) and penicillin/streptomycin (pen/strep; ThermoFisher; MT-30-001-CI) at 37° C. in a humidified 5% v/v CO2 environment following ATCC guidelines. These HEK293T cells were tested for mycoplasma contamination using the Universal Mycoplasma Detection Kit (ATCC; 30-1012K) and validated using Short Tandem Repeat profiling by ATCC (ATCC; 135-XV) within the previous year.
HEK293T labeling and fluorescence microscopy. […] For pulse-chase experiments, HEK293T cells were incubated with biotin-HaloTag® ligand (6; #G8281, Promega) at either 100 nM or 10 μM for 1 hour at 37° C. and chased with 100 nM of JANELIA FLUOR® (JF)549-HaloTag® ligand (2HTL). […] For imaging, the coverslips containing HEK293T cells were fixed with 4% paraformaldehyde in PBS at 37° C. for 10 min, washed with PBS (3×), and mounted on glass slides with ProLong Glass Antifade Mountant with NucBlue™ Stain (ThermoFisher; P36981). These cells were imaged using a Zeiss LSM 880 with Airyscan and a plan-apochromatic 63×/1.40 oil objective in Fast Airyscan mode. The same image acquisition settings were used for each trial and condition. Images were then processed with automatic Airyscan deconvolution settings.

[4] = 1:1 (v/v) dioxane-water; parent JF dyes; cited from earlier work
[5] = 1-Photon spectroscopy and quantum yield of HaloTag® ligands; type: physicochemical; conditions: free ligand, 10 mM HEPES pH 7.3
Procedure: 1-Photon spectroscopy of HaloTag® ligands and HaloTag® conjugates. […] All measurements were taken at ambient temperature (22 ±2° C.). Absorption spectra were recorded on a Cary Model 100 spectrometer (Agilent) using 1-cm path length 1.0-mL quartz microcuvettes from Starna Cells. Fluorescence spectra were recorded on a Cary Eclipse fluorometer (Varian) using 1-cm path length 3.5-mL quartz cuvettes (Starna Cells). As before,^13, 23, 32, 45 HaloTag® protein was used as a 100 μM solution in 1×TBS. HaloTag® ligands 12-15 (5 μM) were dissolved in 10 mM HEPES, pH 7.3, containing 0.1 mg/mL CHAPS. An aliquot of HaloTag® protein (1.5 equiv) was added, and the resulting mixture was incubated until a consistent absorbance signal was observed (60-120 min). To measure the fold-increase of absorbance upon HaloTag® binding, a “no HaloTag®” control experiment was performed where an equivalent volume of TBS blank was added in place of the protein. Reported values for extinction coefficient (ε) are averages of at least two measurements.
Quantum yield determination. All reported absolute fluorescence quantum yield values (Φf) were measured in the laboratory under identical conditions using a Quantaurus-QY spectrometer (model C11374, Hamamatsu). This instrument uses an integrating sphere to determine photons absorbed and emitted by a sample. Measurements were performed using dilute samples (absorbance<0.1), and self-absorption corrections were performed using the instrument software.^46 Reported values are averages of at least two measurements.

[6] = tested on: HaloTag®-histone H2B fusion protein; type: cell-based; conditions: 200 nM, live U2OS cells expressing HaloTag®-H2B, 0-4 h
Procedure: Dye loading kinetics. Live U2OS.H2B.HaloTag® stable cells were labeled over a time course of 0-4 h with 200 nM of biotin-JF549-HaloTag® ligand (12), biotin-JF608-HaloTag® ligand (13), biotin-JF646-HaloTag® ligand (14), or biotin-JF635-HaloTag® ligand (15) at 37° C. Cells were then washed 3× with dye-free media, fixed with 4% paraformaldehyde in 0.1 M phosphate buffer, pH 7.4 for 15 min at 37° C. Confocal imaging was performed on a Leica SP8 with an HC PL APO CS2 20×/0.75 immersion objective using the tunable white light laser (WLL) to excite dyes at their λabs in constant power mode. Fluorescence was quantified as the average integrated density of background corrected nuclear signals from confocal image stack projections analyzed in FIJI; n=100 nuclear signals per compound.

Structure (SMILES)	logD7.4 ([2]; pH 7.4)	logD7.4 ([2]; octanol-PBS pH 7.4)	KL-Z [1]	KL-Z [4]	also measured
O=C(NCCOCCOCCCCCCCl)c1ccc2c(c1)C1(OC2=O)c2ccc(N3CCC3)cc2Oc2cc(N3CCC3)ccc21 [2HTL, JF549-HaloTag® ligand, reference compound]	0.82	–	5.2	–	labeling of mitochondria-localized HaloTag®-msGFP fusion [3]: labeled the mitochondria-localized HaloTag®-msGFP fusions
CC1(C)c2cc(N3CCC3)ccc2C2(OC(=O)c3ccc(C(=O)NCCOCCOCCCCCCCl)cc32)c2ccc(N3CCC3)cc21 [3HTL, reference compound]	–	3.55	0.33	–	–
C[Si]1(C)c2cc(N3CCC3)ccc2C2(OC(=O)c3ccc(C(=O)NCCOCCOCCCCCCCl)cc32)c2ccc(N3CCC3)cc21 [4HTL, JF646-HaloTag® ligand, reference compound]	–	3.59	0.010	–	labeling of mitochondria-localized HaloTag®-msGFP fusion [3]: labeled the mitochondria in live cells
CC1(C)C2=CC(=[N+]3CC(C(=O)NCCOCCOCCNC(=O)CCCC[C@@H]4SC[C@@H]5NC(=O)N[C@@H]54)C3)C=CC2=C(c2cc(C(=O)NCCOCCOCCCCCCCl)ccc2C(=O)[O-])c2ccc(N3CCC3)cc21 (some centres unmarked) [compound 13, Biotin-JF608-HaloTag® ligand]	2.63	–	0.17	–	extinction coefficient (ε) [5]: 92,300 M^−1cm^−1; fluorescence quantum yield (Φf) [5]: 0.65; λabs [5]: 610 nm; λem [5]: 634 nm; time to reach saturation of labeling [6]: 4 h

Continued, in another order:

logD7.4 ([2]; pH 7.4)	logD7.4 ([2]; octanol-PBS pH 7.4)	Structure (SMILES)	KL-Z [1]	KL-Z [4]	also measured
0.98	–	O=C1OC2(c3ccc(N4CCC4)cc3Oc3cc(N4CCC4)ccc32)c2ccccc21 [compound 2, Janelia Fluor 549]	–	3.5	–
–	3.78	CC1(C)c2cc(N3CCC3)ccc2C2(OC(=O)c3ccccc32)c2ccc(N3CCC3)cc21 [compound 3, JF608]	–	0.091	–
–	3.98	C[Si]1(C)c2cc(N3CCC3)ccc2C2(OC(=O)c3ccccc32)c2ccc(N3CCC3)cc21 [compound 4, JF646]	–	0.0014	–
–	4.1	C[Si]1(C)c2cc(N3CC(F)C3)ccc2C2(OC(=O)c3ccccc32)c2ccc(N3CC(F)C3)cc21 [compound 5, JF635]	–	0.0001	–
